Experimental data published in patent US20060293264A1, “STAT3 decoy oligonucleotides and uses therefor” (priority 2004, published 2006).

Columns and labels:
[1] = system: Bcl-xL; experiment: Bcl-xL expression by immunoblotting in SCCHN cells in vitro; assay type: cell-based, human; settings: 1483 cells; 25 μM, 6 days; p<0.0001
Method: (§1) Immunoblotting. Whole cell extracts were mixed with 2× sodium dodecyl sulfate (SDS) sample buffer (125 mmol/L Tris-HCL, pH 6.8; 4% SDS; 20% glycerol; 10% 2 mercaptoethanol) at 1:1 ratio and were heated for 5 min at 100° C. Proteins (50 μg/lane) were separated by 12.5% SDS-PAGE and transferred onto a nitrocellulose membrane (MSI; Westboro, Mass). Prestained molecular weight markers (GIBCO BRL; Gaithersburg, MD) were included in each gel. Membranes were blocked for 30 min in Tris-buffered saline (TBS: 10 mmol/L Tris-HCL, pH 7.5 and 150 mmol/L NaCl) with 0.5% Tween-20 (TBST) and 5% BSA. […] Quantification of Cyclin D1 and Bcl-xL was performed by using a Molecular Dynamics Personal Densitometer SI and IMAGEQUANT software (Image Products International, Chantilly, Va.). Immunoblotting bands were quantified by densitometry and the Molecular Analyst software (AlphaDigidoc 1000, Alpho-Innotech) with normalization of each band to their corresponding loading control (Xi, S., et al. J Biol Chem, 278: 31574-31583, 2003). […]
(§2) As shown above, treatment with the STAT3 decoy abrogates STAT3 target gene expression in vivo. […] The data were analyzed using parametric analysis of variance of a two-way factorial design. […]

[2] = system: SCCHN cells (1483); experiment: Annexin 5-Cy3 apoptosis assay in SCCHN cells; assay type: cell-based; settings: 1483 cells; 25 μM, 6 days; p<0.0001
Method: SCCHN cells (1483) were treated with mutant control decoy (25 μM), or STAT3 decoy alone (25 μM), or cisplatin alone (20 μM), or STAT3 decoy (25 μM) plus cisplatin (20 μM). Mutant control decoy or STAT3 decoy was always applied for a total of 6 days, and cisplatin was added for the last 24 hr before harvesting. The effects of the STAT3 decoy plus cisplatin on apoptosis was assessed by an Annexin 5-Cy3 apoptosis assay (BioVision Research Products, 2455-D Old Middlefield Way, Mountain View, Calif. 94043 USA) and Bcl-xL and Cyclin D1 were examined using immunoblotting as described below.
Following treatment with STAT3 decoy plus cisplatin, SCCHN cells were detached by trypsinization, counted and pelleted (1000 r.p.m. for 5 min). Cell pellets were washed once with PBS (pH 7.4) and resuspended in 100 μl Annexin V binding buffer (10 mM HEPES, pH 7.4, 140 mM NaCl, 2.5 mM CaCl2). […] The membranes of apoptotic cells are stained a bright orange color when analyzed with a fluorescence microscope. The ratio (percentage) of apoptotic to total cells (apoptotic plus non-apoptotic cells) was calculated for each high power field. For each treatment, 5-10 high power fields of view were quantitated on each section.

[3] = system: Cyclin D1; experiment: Cyclin D1 expression by immunoblotting in SCCHN cells in vitro; assay type: cell-based, human; settings: 1483 cells; 25 μM, 6 days; p<0.0001
Method: as §1, §2

[4] = system: Cyclin D1; experiment: Cyclin D1 expression by immunoblotting in harvested xenografts; assay type: in vivo, human; settings: decoy alone, p=0.0022
Method: as §1, with “BSA. After blocking, membranes were incubated with a primary antibody; rabbit anti-human VEGF polyclonal antibody, rabbit anti-human Cyclin D1 polyclonal antibody, mouse anti-human Bcl-xL monoclonal antibody, or rabbit anti-human PCNA polyclonal antibody (Santa Cruz Biotechnology, Santa Cruz, Calif.), in TBST and 1% BSA.” for “BSA.”

[5] = system: GAS-responsive element; experiment: pGAS-Luc reporter gene assay in UM-22B SCCHN cells; assay type: cell-based; settings: UM-22B pGAS-Luc, 2 μg transfected, 24 hrs, IFN-γ stimulation
Method: FIG. 9 depicts the inhibition of reporter gene expression from GAS-responsive element in SCCHN cells. An SCCHN cell line, UM-22B, was used to generate a stable cell line expressing a pGAS-Luc reporter gene (pGAS-Luc plasmid carrying 4 repeats of GAS sequence: [NT] ID NO: 31), was obtained from Stratagene, Catalog number: 219091-51). The cells were transfected with 2 μg of the STAT3 decoy or the control mutant decoy. At 24 hrs after transfection, luciferase activity was measured and normalized to the total amount of protein.

## STAT3 decoy (sense CATTTCCCGTAAATC; antisense GATTTACGGGAAATG; phosphorothioate modified, further chemistry not given here; listed as Homo sapiens)
[1]
  Bcl-xL expression compared with mutant control decoy: decreased
[2]
  apoptosis compared with mutant control decoy: increased
[3]
  Cyclin D1 expression compared with mutant control decoy: decreased
[4]
  Cyclin D1 expression levels compared with mutant control decoy: significant effect
[5]
  reporter gene expression from a GAS-responsive element (STAT1 reporter activity): inhibit
